System: 596521-263-R-J1-PDC complex spheroids, viability % of control
Assay: Anticancer human tumor 596521-263-R-J1-PDC patient-derived soft tissue sarcoma cell line growth inhibition [GQUAD]
Conditions: for IC50: curve of first compound; for viability, T/C: stronger effect = lower value
How it was run: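 Tumor cells were grown as complex spheroids with HUVEC endothelial cells and mesenchymal stem cells as stroma. G-quadruplex stabilizers were combined with targeted agents over half-log dilutions from near the clinical Cmax, or from 10 microM.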

[1] = second compound 0.0316 µM, first compound 0.0316 µM
[2] = second compound 0.0316 µM, first compound 0.316 µM
[3] = second compound 0.1 µM, first compound 0.0316 µM
[4] = second compound 0.1 µM, first compound 0.316 µM
[5] = second compound 0.316 µM, first compound 0.0316 µM
[6] = second compound 0.316 µM, first compound 0.316 µM
[7] = second compound 1 µM, first compound 0.0316 µM
[8] = second compound 1 µM, first compound 0.316 µM
[9] = second compound 3.16 µM, first compound 0.0316 µM
[10] = second compound 3.16 µM, first compound 0.316 µM
[11] = second compound 10 µM, first compound 0.0316 µM
[12] = second compound 10 µM, first compound 0.316 µM
[13] = second compound 0.0316 µM, first compound 0.000999 µM
[14] = second compound 0.0316 µM, first compound 0.00316 µM
[15] = second compound 0.0316 µM, first compound 0.00999 µM
[16] = second compound 0.0316 µM, first compound 0.0999 µM
[17] = second compound 0.1 µM, first compound 0.000999 µM
[18] = second compound 0.1 µM, first compound 0.00316 µM
[19] = second compound 0.1 µM, first compound 0.00999 µM
[20] = second compound 0.1 µM, first compound 0.0999 µM
[21] = second compound 0.316 µM, first compound 0.000999 µM
[22] = second compound 0.316 µM, first compound 0.00316 µM
[23] = second compound 0.316 µM, first compound 0.00999 µM
[24] = second compound 0.316 µM, first compound 0.0999 µM
[25] = second compound 1 µM, first compound 0.000999 µM
[26] = second compound 1 µM, first compound 0.00316 µM
[27] = second compound 1 µM, first compound 0.00999 µM
[28] = second compound 1 µM, first compound 0.0999 µM
[29] = second compound 3.16 µM, first compound 0.000999 µM
[30] = second compound 3.16 µM, first compound 0.00316 µM
[31] = second compound 3.16 µM, first compound 0.00999 µM
[32] = second compound 3.16 µM, first compound 0.0999 µM
[33] = second compound 10 µM, first compound 0.000999 µM
[34] = second compound 10 µM, first compound 0.00316 µM
[35] = second compound 10 µM, first compound 0.00999 µM
[36] = second compound 10 µM, first compound 0.0999 µM
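Also: spheroids exposed to drugs for 7 days before viability reading.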
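For viability, T/C in this document: 100% = DMSO vehicle control viability.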

For C=CC(=O)N1CCN(c2nc(=O)n(-c3c(C)ccnc3C(C)C)c3nc(-c4c(O)cccc4F)c(F)cc23)C(C)C1 (stereo unspecified) + Cc1cnc(CNC(=O)c2c(=O)c3ccc(N4CCCN(C)CC4)nc3n3c2sc2ccccc23)cn1, the IC50 (second compound 0.0316 µM) was > 10000 nM, the IC50 (second compound 0.1 µM) was > 10000 nM and the IC50 (second compound 0.316 µM) was > 10000 nM. For the same molecule, the IC50 (second compound 1 µM) was > 10000 nM, the IC50 (second compound 3.16 µM) was > 10000 nM and the IC50 (second compound 10 µM) was < 31.6 nM. It also gave a viability, T/C [1] of 104%, a viability, T/C (second compound 0.0316 µM, first compound 0.1 µM) of 101% and a viability, T/C [2] of 103%. For the same molecule, the viability, T/C (second compound 0.0316 µM, first compound 1 µM) was 112%, the viability, T/C (second compound 0.0316 µM, first compound 3.16 µM) was 108% and the viability, T/C (second compound 0.0316 µM, first compound 10 µM) was 75.8%. It also gave a viability, T/C [3] of 88.3%, a viability, T/C (second compound 0.1 µM, first compound 0.1 µM) of 86.1% and a viability, T/C [4] of 91.8%. The viability, T/C (second compound 0.1 µM, first compound 1 µM) was 107%, the viability, T/C (second compound 0.1 µM, first compound 3.16 µM) was 103% and the viability, T/C (second compound 0.1 µM, first compound 10 µM) was 77.6%. For the same molecule, the viability, T/C [5] was 89.5%, the viability, T/C (second compound 0.316 µM, first compound 0.1 µM) was 85.1% and the viability, T/C [6] was 90.5%. The viability, T/C (second compound 0.316 µM, first compound 1 µM) was 81.1%, the viability, T/C (second compound 0.316 µM, first compound 3.16 µM) was 92.4% and the viability, T/C (second compound 0.316 µM, first compound 10 µM) was 69.1%. The viability, T/C [7] was 67.8%, the viability, T/C (second compound 1 µM, first compound 0.1 µM) was 64.8% and the viability, T/C [8] was 67%. For the same molecule, the viability, T/C (second compound 1 µM, first compound 1 µM) was 71.2%, the viability, T/C (second compound 1 µM, first compound 3.16 µM) was 76.7% and the viability, T/C (second compound 1 µM, first compound 10 µM) was 63.2%. It also gave a viability, T/C [9] of 57.2%, a viability, T/C (second compound 3.16 µM, first compound 0.1 µM) of 56.5% and a viability, T/C [10] of 61.8%. It also gave a viability, T/C (second compound 3.16 µM, first compound 1 µM) of 60%, a viability, T/C (second compound 3.16 µM, first compound 3.16 µM) of 81.4% and a viability, T/C (second compound 3.16 µM, first compound 10 µM) of 61.8%. It also gave a viability, T/C [11] of 51.1%, a viability, T/C (second compound 10 µM, first compound 0.1 µM) of 30.9% and a viability, T/C [12] of 48.6%. For the same molecule, the viability, T/C (second compound 10 µM, first compound 1 µM) was 51%, the viability, T/C (second compound 10 µM, first compound 3.16 µM) was 63.7% and the viability, T/C (second compound 10 µM, first compound 10 µM) was 39.5%.

CC[C@@]1(O)C(=O)OCc2c1cc1n(c2=O)Cc2cc3c(CN(C)C)c(O)ccc3nc2-1 + Cc1cnc(CNC(=O)c2c(=O)c3ccc(N4CCCN(C)CC4)nc3n3c2sc2ccccc23)cn1 was tested, and the IC50 (second compound 0.0316 µM) was > 316 nM, the IC50 (second compound 0.1 µM) was > 316 nM and the IC50 (second compound 0.316 µM) was > 316 nM. The IC50 (second compound 1 µM) was > 316 nM, the IC50 (second compound 3.16 µM) was > 316 nM and the IC50 (second compound 10 µM) was < 0.999 nM. The viability, T/C [13] was 107%, the viability, T/C [14] was 102% and the viability, T/C [15] was 78.7%. It also gave a viability, T/C [1] of 66.5%, a viability, T/C [16] of 60.1% and a viability, T/C [2] of 60.1%. It also gave a viability, T/C [17] of 88.9%, a viability, T/C [18] of 85% and a viability, T/C [19] of 76.5%. It also gave a viability, T/C [3] of 69.3%, a viability, T/C [20] of 57.2% and a viability, T/C [4] of 50.9%. The viability, T/C [21] was 90.1%, the viability, T/C [22] was 86.7% and the viability, T/C [23] was 78.3%. The viability, T/C [5] was 63%, the viability, T/C [24] was 67.1% and the viability, T/C [6] was 65.7%. The viability, T/C [25] was 70.8%, the viability, T/C [26] was 60.2% and the viability, T/C [27] was 60.4%. For the same molecule, the viability, T/C [7] was 63.2%, the viability, T/C [28] was 59.3% and the viability, T/C [8] was 55.8%. For the same molecule, the viability, T/C [29] was 54.3%, the viability, T/C [30] was 60.7% and the viability, T/C [31] was 51.5%. It also gave a viability, T/C [9] of 54.4%, a viability, T/C [32] of 58% and a viability, T/C [10] of 56.2%. For the same molecule, the viability, T/C [33] was 46.5%, the viability, T/C [34] was 47.1% and the viability, T/C [35] was 49.7%. The viability, T/C [11] was 43.7%, the viability, T/C [36] was 49.4% and the viability, T/C [12] was 49%.

With CCc1c2c(nc3ccc(O)cc13)-c1cc3c(c(=O)n1C2)COC(=O)[C@]3(O)CC + Cc1cnc(CNC(=O)c2c(=O)c3ccc(N4CCCN(C)CC4)nc3n3c2sc2ccccc23)cn1 the IC50 (second compound 0.0316 µM) was 8.62 nM, the IC50 (second compound 0.1 µM) was 8.15 nM and the IC50 (second compound 0.316 µM) was 9.24 nM. For the same molecule, the IC50 (second compound 1 µM) was 13.2 nM, the IC50 (second compound 3.16 µM) was 6.43 nM and the IC50 (second compound 10 µM) was < 0.999 nM. For the same molecule, the viability, T/C [13] was 57.6%, the viability, T/C [14] was 59.2% and the viability, T/C [15] was 44.3%. It also gave a viability, T/C [1] of 40%, a viability, T/C [16] of 17.4% and a viability, T/C [2] of 7.92%. It also gave a viability, T/C [17] of 58.6%, a viability, T/C [18] of 56.8% and a viability, T/C [19] of 49.3%. The viability, T/C [3] was 34.1%, the viability, T/C [20] was 21.3% and the viability, T/C [4] was 8.98%. For the same molecule, the viability, T/C [21] was 71.6%, the viability, T/C [22] was 55.4% and the viability, T/C [23] was 49.9%. For the same molecule, the viability, T/C [5] was 40.5%, the viability, T/C [24] was 21.2% and the viability, T/C [6] was 7.27%. The viability, T/C [25] was 63.8%, the viability, T/C [26] was 61.7% and the viability, T/C [27] was 52.6%. For the same molecule, the viability, T/C [7] was 40.1%, the viability, T/C [28] was 24.1% and the viability, T/C [8] was 6.45%. The viability, T/C [29] was 55.8%, the viability, T/C [30] was 55% and the viability, T/C [31] was 47.6%. It also gave a viability, T/C [9] of 37.3%, a viability, T/C [32] of 23.2% and a viability, T/C [10] of 0.26%. The viability, T/C [33] was 47.2%, the viability, T/C [34] was 37.1% and the viability, T/C [35] was 39.6%. The viability, T/C [11] was 32.5%, the viability, T/C [36] was 4.57% and the viability, T/C [12] was 0.24%.

Source: PubChem BioAssay AID2060500 (Molecular Pharmacology Branch, DTP, NCI, 2025)
